Experimental data reported in the supplement of paper PMC10307832.

How the values were obtained:
Test in all cases: relative viability (nuclei count vs DMSO), 5 days (fraction); higher = more cells survive
[1] = system: NCI-H1666
Method in brief: (§1)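 Lung cancer cell lines were seeded in 1536-well plates and dosed by pin tool the next day, with either a single drug or a fixed anchor-drug dose combined with five library-drug doses (not always all listed) spaced in √10 steps. Five days later, one step fixed the cells and stained their nuclei (final 0.05% Triton X-100, 1% formaldehyde, 1 ug/ml Hoechst), and nuclei were counted on 4× images. Relative viability is the nuclei count in treated wells divided by the count in vehicle wells, and each value is the median of duplicate plates.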

[2] = system: NCI-H1755
Method in brief: as §1

[3] = system: NCI-H1993
Method in brief: as §1

[4] = system: NCI-H2085
Method in brief: as §1

[5] = system: NCI-H2170
Method in brief: as §1

[6] = system: NCI-H2228
Method in brief: as §1

[7] = system: NCI-H23
Method in brief: as §1

[8] = system: NCI-H727
Method in brief: as §1

[9] = system: PC-3 [JPC-3]
Method in brief: as §1

[10] = system: RERF-LC-KJ
Method in brief: as §1

[11] = system: SK-LU-1
Method in brief: as §1

**Q.** Which relative viability ([1]; first compound 0.001 µM) does the source give for Cc1cn(-c2cc(NC(=O)c3ccc(C)c(Nc4nccc(-c5cccnc5)n4)c3)cc(C(F)(F)F)c2)cn1 [Nilotinib] + CS(=O)(=O)CCNCc1ccc(-c2ccc3ncnc(Nc4ccc(OCc5cccc(F)c5)c(Cl)c4)c3c2)o1 [Lapatinib] (partner 2 µM) here?
**A.** 0.772

**Q.** What about the relative viability ([1]; first compound 0.003162 µM) of the same compound?
**A.** 0.901

**Q.** And the relative viability ([1]; first compound 0.01 µM)?
**A.** 0.461

**Q.** And the relative viability ([1]; first compound 0.03162 µM)?
**A.** 0.655

**Q.** What about the relative viability ([1]; first compound 0.1 µM) of the same compound?
**A.** 0.641

**Q.** What about the relative viability ([2]; first compound 0.001 µM) of the same compound?
**A.** 1.02

**Q.** What about the relative viability ([2]; first compound 0.003162 µM) of the same compound?
**A.** 1.35

**Q.** And the relative viability ([2]; first compound 0.01 µM)?
**A.** 1.43

**Q.** And the relative viability ([2]; first compound 0.03162 µM)?
**A.** 0.986

**Q.** And the relative viability ([2]; first compound 0.1 µM)?
**A.** 0.551

**Q.** And the relative viability ([3]; first compound 0.001 µM)?
**A.** 0.797

**Q.** What about the relative viability ([3]; first compound 0.003162 µM) of the same compound?
**A.** 0.863

**Q.** And the relative viability ([3]; first compound 0.01 µM)?
**A.** 0.77

**Q.** And the relative viability ([3]; first compound 0.03162 µM)?
**A.** 0.874

**Q.** And the relative viability ([3]; first compound 0.1 µM)?
**A.** 0.651

**Q.** And the relative viability ([4]; first compound 0.001 µM)?
**A.** 0.822

**Q.** What about the relative viability ([4]; first compound 0.003162 µM) of the same compound?
**A.** 0.817

**Q.** And the relative viability ([4]; first compound 0.01 µM)?
**A.** 0.748

**Q.** What about the relative viability ([4]; first compound 0.03162 µM) of the same compound?
**A.** 0.66

**Q.** What about the relative viability ([4]; first compound 0.1 µM) of the same compound?
**A.** 0.599

**Q.** What about the relative viability ([5]; first compound 0.001 µM) of the same compound?
**A.** 0.26

**Q.** What about the relative viability ([5]; first compound 0.003162 µM) of the same compound?
**A.** 0.285

**Q.** What about the relative viability ([5]; first compound 0.01 µM) of the same compound?
**A.** 0.272

**Q.** What about the relative viability ([5]; first compound 0.03162 µM) of the same compound?
**A.** 0.28

**Q.** And the relative viability ([5]; first compound 0.1 µM)?
**A.** 0.268

**Q.** What about the relative viability ([6]; first compound 0.001 µM) of the same compound?
**A.** 1.03

**Q.** What about the relative viability ([6]; first compound 0.003162 µM) of the same compound?
**A.** 1.25

**Q.** What about the relative viability ([6]; first compound 0.01 µM) of the same compound?
**A.** 1.13

**Q.** What about the relative viability ([6]; first compound 0.03162 µM) of the same compound?
**A.** 1.01

**Q.** And the relative viability ([6]; first compound 0.1 µM)?
**A.** 0.285

**Q.** And the relative viability ([7]; first compound 0.001 µM)?
**A.** 1.01

**Q.** And the relative viability ([7]; first compound 0.003162 µM)?
**A.** 1.13

**Q.** What about the relative viability ([7]; first compound 0.01 µM) of the same compound?
**A.** 1.4

**Q.** And the relative viability ([7]; first compound 0.03162 µM)?
**A.** 0.87

**Q.** And the relative viability ([7]; first compound 0.1 µM)?
**A.** 0.704

**Q.** What about the relative viability ([8]; first compound 0.001 µM) of the same compound?
**A.** 0.858

**Q.** And the relative viability ([8]; first compound 0.01 µM)?
**A.** 0.985

**Q.** What about the relative viability ([8]; first compound 0.03162 µM) of the same compound?
**A.** 0.591

**Q.** What about the relative viability ([8]; first compound 0.1 µM) of the same compound?
**A.** 0.368

**Q.** And the relative viability ([9]; first compound 0.001 µM)?
**A.** 0.44

**Q.** What about the relative viability ([9]; first compound 0.003162 µM) of the same compound?
**A.** 0.537

**Q.** And the relative viability ([9]; first compound 0.01 µM)?
**A.** 0.467

**Q.** And the relative viability ([9]; first compound 0.03162 µM)?
**A.** 0.542

**Q.** And the relative viability ([9]; first compound 0.1 µM)?
**A.** 0.282

**Q.** What about the relative viability ([10]; first compound 0.001 µM) of the same compound?
**A.** 0.874

**Q.** What about the relative viability ([10]; first compound 0.003162 µM) of the same compound?
**A.** 0.986

**Q.** And the relative viability ([10]; first compound 0.01 µM)?
**A.** 0.977

**Q.** And the relative viability ([10]; first compound 0.03162 µM)?
**A.** 0.882

**Q.** What about the relative viability ([10]; first compound 0.1 µM) of the same compound?
**A.** 0.888

**Q.** And the relative viability ([11]; first compound 0.001 µM)?
**A.** 0.769

**Q.** What about the relative viability ([11]; first compound 0.003162 µM) of the same compound?
**A.** 0.855

**Q.** What about the relative viability ([11]; first compound 0.01 µM) of the same compound?
**A.** 1.08

**Q.** What about the relative viability ([11]; first compound 0.03162 µM) of the same compound?
**A.** 0.558

**Q.** What about the relative viability ([11]; first compound 0.1 µM) of the same compound?
**A.** 0.6
